Source: article PMC7419507, “In vitro Cas9-assisted editing of modular polyketide synthase genes to produce desired natural product derivatives” (Nature Communications, 2020)
Several values for one entry are separate records, joined by “and”; a condition that tells them apart may be missing. Equal values may be shown once.

Legend:
Format in all cases: cell-based
[1] = Cytotoxicity assay (CellTiter-Glo, 72 h), MESO-1; conditions: human, MESO-1 malignant pleural mesothelioma cells, raw replicate data, read-out: MESO1 viability (%)
Outline: (§1)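 1000 cells/well; 4 h settle, then 2-fold serial dilutions (0.5% DMSO final), 72 h, 37 °C/5% CO2. Read-out: CellTiter-Glo luminescence. Media: RPMI1640 + 10% FBS (Jurkat, MESO-1; Jurkat also Glutamax), DMEM + 10% FBS (SKOV-3).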

[2] = tested on: malignant pleural mesothelioma MESO-1 cells; assay: Cytotoxicity assay (CellTiter-Glo, 72 h), MESO-1; conditions: raw replicate data
Outline: as §1

[3] = tested on: Jurkat, SKOV-3 and MESO-1 cells; assay: Cytotoxicity assay, statements for all tested cell lines together
Outline: as §1

COC1CC2CCC(C)C(O)(O2)C(=O)C(=O)N2CCCCC2C(=O)OC(C(C)CC2CCC(O)C(OC)C2)CC(=O)C(C)C=C(C)C(O)C(OC)C(=O)C(C)CC(C)C=CCCC=C1C (centres unmarked) [Compound 15, 19,20-dihidro-rapamycin]
viability at 72 h, 9.53674e-05 uM ([1]; conc 9.53674e-5 uM): 94.1%
viability at 72 h, 0.000190735 uM ([1]; conc 0.000190735 uM): 92%
viability at 72 h, 0.00038147 uM ([1]; conc 0.00038147 uM): 98.8%
viability at 72 h, 0.000762939 uM ([1]; conc 0.000762939 uM): 93.3%
viability at 72 h, 0.00152588 uM ([1]; conc 0.00152588 uM): 97.7%
viability at 72 h, 0.00305176 uM ([1]; conc 0.00305176 uM): 89.3%
viability at 72 h, 0.00610352 uM ([1]; conc 0.00610352 uM): 90.8%
viability at 72 h, 0.012207 uM ([1]; conc 0.012207 uM): 87.6%
viability at 72 h, 0.0244141 uM ([1]; conc 0.0244141 uM): 92.1%
viability at 72 h, 0.0488281 uM ([1]; conc 0.0488281 uM): 82.9%
viability at 72 h, 0.0976562 uM ([1]; conc 0.0976562 uM): 81.6%
viability at 72 h, 0.195312 uM ([1]; conc 0.195312 uM): 70.6%
viability at 72 h, 0.390625 uM ([1]; conc 0.390625 uM): 78.2%
viability at 72 h, 0.78125 uM ([1]; conc 0.78125 uM): 66.4%
viability at 72 h, 1.5625 uM ([1]; conc 1.5625 uM): 69.2%
viability at 72 h, 3.125 uM ([1]; conc 3.125 uM): 67.6%
viability at 72 h, 6.25 uM ([1]; conc 6.25 uM): 68.9%
viability at 72 h, 12.5 uM ([1]; conc 12.5 uM): 63.9%
viability at 72 h, 50 uM ([1]; conc 50 uM): 0.6%
MESO1 viability (%) ([2]; conc 9.53674e-5 uM): 97.4% and 107.3%
MESO1 viability (%) ([2]; conc 0.000190735 uM): 96.0% and 92.6%
MESO1 viability (%) ([2]; conc 0.00038147 uM): 101.5% and 100.0%
MESO1 viability (%) ([2]; conc 0.000762939 uM): 86.7% and 94.3%
MESO1 viability (%) ([2]; conc 0.00152588 uM): 92.8% and 93.2%
MESO1 viability (%) ([2]; conc 0.00305176 uM): 90.6%
MESO1 viability (%) ([2]; conc 0.00610352 uM): 91.6% and 97.1%
MESO1 viability (%) ([2]; conc 0.012207 uM): 80.5%
MESO1 viability (%) ([2]; conc 0.0244141 uM): 89.5% and 86.4%
MESO1 viability (%) ([2]; conc 0.0488281 uM): 83.3% and 88.8%
MESO1 viability (%) ([2]; conc 0.0976562 uM): 82.7% and 83.7%
MESO1 viability (%) ([2]; conc 0.195312 uM): 70.8% and 80.6%
MESO1 viability (%) ([2]; conc 0.390625 uM): 69.4% and 71.4%
MESO1 viability (%) ([2]; conc 0.78125 uM): 68.2% and 67.7%
MESO1 viability (%) ([2]; conc 1.5625 uM): 70.1% and 68.2%
MESO1 viability (%) ([2]; conc 3.125 uM): 66.5%
MESO1 viability (%) ([2]; conc 6.25 uM): 67.5% and 68.1%
MESO1 viability (%) ([2]; conc 12.5 uM): 65.8% and 62.8%
MESO1 viability (%) ([2]; conc 25 uM): 15.9% and 37.2% and 39.7%
MESO1 viability (%) ([2]; conc 50 uM): 0.367% and 0.476%
Effect on cell viability, in words ([3]; Jurkat, SKOV-3 and MESO-1 cells, 72 h): slightly suppressed the cell viabilities
Cytostatic effect, fold lower than that of 1 ([3]; relative to rapamycin (1)): ~ 100 fold
